Results reported in patent US11505548B2, “Heterocyclic compounds and their use for treatment of helminthic infections and diseases” (Celgene Corporation, priority 2019, dated 2022).

These molecules were tested on Onchocerca gutturosa Adult Male Worms (assay: Onchocerciasis in vitro screening model, worm motility score). Conditions: Onchocerca gutturosa; Table 1 O. gutturosa; levels A/B/C; motility or MTT readout not specified; read-out: O. gutturosa activity level (IC50 or MED).
Assay type: cell-based

SMILES | IC50
CC(C)Oc1ccc(-c2nsc(Nc3ncccc3C(=O)N(C)C3CC(F)(F)C3)n2)nc1 [Compound 191, N-(3,3-difluoro-cyclobutyl)-2-(3-(5-isoprop-oxypyridin-2-yl)-1,2,4-thiadiazol-5-ylamino)-N-methyl-nicotinamide] | 200 to 500 nM
Cc1cccnc1Nc1nc(-c2cc(C(=O)N(C)C)c(OC(C)C)cn2)ns1 [Compound 192, 5-isopropoxy-N,N-dimethyl-2-(5-(3-methylpyridin-2-ylamino)-1,2,4-thiadiazol-3-yl)isonicotin-amide] | 500 to 5000 nM
CC(C)Oc1cnc(-c2nsc(Nc3ncccc3C(C)C)n2)cc1C(=O)N(C)C [Compound 193, 5-isopropoxy-2-(5-(3-isopropylpyridin-2-ylamino)-1,2,4-thiadiazol-3-yl)-N,N-dimethy-lisonicotinamide] | 200 to 500 nM
CC(C)Oc1cnc(-c2nsc(Nc3ncccc3N3CCCC3=O)n2)cc1C(=O)N(C)C [Compound 194, 5-isopropoxy-N,N-dimethyl-2-(5-(3-(2-oxopyrrolidin-1-yl)pyridin-2-ylamino)-1,2,4-thiadiazol-3-yl)isonicotin-amide] | 500 to 5000 nM
CC(C)Oc1ccc(-c2nsc(Nc3ncc(C(=O)NC4CC(F)(F)C4)cc3C(C)C)n2)nc1 [Compound 195, N-(3,3-difluoro-cyclobutyl)-6-(3-(5-isoprop-oxypyridin-2-yl)-1,2,4-thiadiazol-5-ylamino)-5-isopropyl-nicotinamide] | < 200 nM
COC(=O)c1cc(-c2nsc(Nc3ncccc3C)n2)ncc1OC(C)C [Compound 196, methyl 5-isopropoxy-2-(5-(3-methylpyridin-2-ylamino)-1,2,4-thiadiazol-3-yl)isonicotinate] | 200 to 500 nM
COC(=O)c1cc(-c2nsc(Nc3ncccc3C(C)C)n2)ncc1OC(C)C [Compound 197, methyl 5-isopropoxy-2-(5-(3-isopropylpyridin-2-ylamino)-1,2,4-thiadiazol-3-yl)isonicotinate] | < 200 nM

Same assay, conditions: in vitro; Onchocerca gutturosa adult male worms; class A/B/C; read-out: O. gutturosa activity level (IC50 or MED)

SMILES | IC50
CC(C)Oc1cnc(-c2nsc(Nc3ncccc3C(C)C)n2)cc1C(N)=O [Compound 198, 5-isopropoxy-2-(5-(3-isopropylpyridin-2-ylamino)-1,2,4-thiadiazol-3-yl)isonicotin-amide] | 500 to 5000 nM
CC(=O)N(C)c1cccnc1Nc1nc(-c2ccc(OC3CCOCC3)cn2)ns1 [Compound 199, N-methyl-N-(2-(3-(5-(tetrahydro-2H-pyran-4-yloxy)pyridin-2-yl)-1,2,4-thiadiazol-5-ylamino)pyridin-3-yl)acetamide] | 500 to 5000 nM
Cc1cccnc1Nc1nc(-c2cc(C#N)c(OC(C)C)cn2)ns1 [Compound 200, 5-isopropoxy-2-(5-(3-methylpyridin-2-ylamino)-1,2,4-thiadiazol-3-yl)isonicotino-nitrile] | 500 to 5000 nM
CC(C)Oc1cnc(-c2nsc(Nc3ncccc3C(C)C)n2)cc1C#N [Compound 201, 5-isopropoxy-2-(5-(3-isopropyl-pyridin-2-ylamino)-1,2,4-thiadiazol-3-yl)isonicotino-nitrile] | 500 to 5000 nM
CC(=O)N(C)c1cccnc1Nc1nc(-c2cc3c(cn2)N(C)CC3)ns1 [Compound 202, N-methyl-N-(2-(3-(1-methyl-2,3-dihydro-1H-pyrrolo[2,3-c]pyridin-5-yl)-1,2,4-thiadiazol-5-ylamino)pyridin-3-yl)acetamide] | 200 to 500 nM
CC(=O)N(C)c1cccnc1Nc1nc(-c2ccc(OC3CCN(C(C)C)CC3(F)F)cn2)ns1 (stereo not drawn) [Compound 203, N-(2-(3-(5-(3,3-difluoro-1-isopropyl-piperidin-4-yloxy)pyridin-2-yl)-1,2,4-thiadiazol-5-ylamino)pyridin-3-yl)-N-methylacetamide] | 500 to 5000 nM
O=C1CCCN1c1cccnc1Nc1nc(-c2ccc(NC34CC(C3)C4)cn2)ns1 [Compound 204, 1-(2-(3-(5-(bicyclo [1.1.1]pentan-1-ylamino)pyridin-2-yl)-1,2,4-thiadiazol-5-ylamino)pyridin-3-yl)pyrrolidin-2-one] | 500 to 5000 nM
CC(=O)N(c1cccnc1Nc1nc(-c2ccc(OC(C)C)cn2)ns1)C(C)C [Compound 205, N-(2-(3-(5-isopropoxy-pyridin-2-yl)-1,2,4-thiadiazol-5-ylamino)pyridin-3-yl)-N-isopropy-lacetamide] | 500 to 5000 nM
CC(=O)N(C)c1cccnc1Nc1nc(-c2cc3c(cn2)N(C(C)C)CC3)ns1 [Compound 206, N-(2-(3-(1-isopropyl-2,3-dihydro-1H-pyrrolo[2,3-c]pyridin-5-yl)-1,2,4-thiadiazol-5-ylamino)pyridin-3-yl)-N-methylacetamide] | 500 to 5000 nM
CC(=O)N(C)c1cccnc1Nc1nc(-c2ccc(NC34CC(C3)C4)cn2)ns1 [Compound 207, N-(2-(3-(5-(bicyclo [1.1.1]pentan-1-ylamino)pyridin-2-yl)-1,2,4-thiadiazol-5-ylamino)pyridin-3-yl)-N-methylacetamide] | 500 to 5000 nM
CC(=O)N(C)c1cccnc1Nc1nc(-c2cc(C)ccn2)ns1 [Compound 208, N-methyl-N-(2-(3-(4-methylpyridin-2-yl)-1,2,4-thiadiazol-5-ylamino)pyridin-3-yl)acetamide] | 500 to 5000 nM
COc1ccc(-c2nsc(Nc3ccc(C(F)(F)F)cn3)n2)nc1 [Compound 209, 3-(5-methoxy-pyridin-2-yl)-N-(5-(trifluoromethyl)pyridin-2-yl)-1,2,4-thiadiazol-5-amine] | < 200 nM
COc1cccnc1-c1nsc(Nc2cc(C(F)(F)F)c(C(C)C)cn2)n1 [Compound 210, N-(5-isopropyl-4-(trifluoromethyl)pyridin-2-yl)-3-(3-methoxy-pyridin-2-yl)-1,2,4-thiadiazol-5-amine] | 200 to 500 nM
Cc1cccnc1Nc1nnc(-c2cc(OC(C)C)ccn2)o1 [Compound 211, 5-(4-isopropoxy-pyridin-2-yl)-N-(3-methyl-pyridin-2-yl)-1,3,4-oxadiazol-2-amine] | 500 to 5000 nM
COc1ccc(Nc2nnc(-c3cc(OC(C)C)ccn3)o2)nc1 [Compound 212, 5-(4-isoprop-oxypyridin-2-yl)-N-(5-methoxy-pyridin-2-yl)-1,3,4-oxadiazol-2-amine] | 500 to 5000 nM
FC(F)(F)c1ccc(Nc2nc(-c3cc(OC4CCCCC4)ccn3)ns2)nc1 [Compound 213, 3-(4-(cyclo-hexyloxy)pyridin-2-yl)-N-(5-(trifluoromethyl)pyridin-2-yl)-1,2,4-thiadiazol-5-amine] | < 200 nM
COc1ccc(Nc2nnc(-c3cc(OC4CCCCC4)ccn3)o2)nc1 [Compound 214, 5-(4-(cyclohexy-loxy)pyridin-2-yl)-N-(5-methoxypyridin-2-yl)-1,3,4-oxadiazol-2-amine] | < 200 nM
COc1ccc(-c2nsc(Nc3ccc(OC(C)C)cn3)n2)nc1 [Compound 215, N-(5-isoprop-oxypyridin-2-yl)-3-(5-methoxy-pyridin-2-yl)-1,2,4-thiadiazol-5-amine] | 500 to 5000 nM
CC(=O)N(C)c1cccnc1Nc1nc(-c2cc(C(C)C)ccn2)ns1 [Compound 216, N-(2-(3-(4-iso-propylpyridin-2-yl)-1,2,4-thiadiazol-5-ylamino)pyridin-3-yl)-N-methyl-acetamide] | 200 to 500 nM
CC(C)c1ccnc(-c2nsc(Nc3ncccc3N(C)C(=O)C3CC3)n2)c1 [Compound 217, N-(2-(3-(4-isopropylpyridin-2-yl)-1,2,4-thiadiazol-5-ylamino)pyridin-3-yl)-N-methylcyclo-propanecarbox-amide] | 200 to 500 nM
